Results: paper PMC10443802, “Targeting a xenobiotic transporter to ameliorate vincristine-induced sensory neuropathy” (JCI Insight, 2023)
“And” between values parts separate entries of the source, which are not always exact repeats. Identical values can stand only once.

Tests used:
LYN kinase = target: T1, LYN kinase (Mus musculus, UniProt P25911); test: Phosphorylation of LYN kinase in DRG of mice (phospho-LYN/total LYN); assay type: in vivo
T1 construct: from tissue
Protocol: mg/kg; p.o.) wild-type mice, using specific antibodies for phospho-LYN and total LYN (n = 3 per group).
(C) Mechanical allodynia in wild-type mice and LYN-deficient [LYN(-/-)] mice 24 h after a single dose of
Data presented represent the mean (bars) ± SEM (error
bars), and paw sensitivity is expressed as a percentage over baseline values. Statistical analysis was […]

mOATP1B2 = target: T2, mOATP1B2 (Mus musculus, UniProt Q9JJL3); test: Nilotinib uptake in HEK293 cells overexpressing mOATP1B2; assay type: in vitro ADME; settings: HEK293 cells overexpressing mOATP1B2 vs vector control
T2 sequence (Q9JJL3 1-689): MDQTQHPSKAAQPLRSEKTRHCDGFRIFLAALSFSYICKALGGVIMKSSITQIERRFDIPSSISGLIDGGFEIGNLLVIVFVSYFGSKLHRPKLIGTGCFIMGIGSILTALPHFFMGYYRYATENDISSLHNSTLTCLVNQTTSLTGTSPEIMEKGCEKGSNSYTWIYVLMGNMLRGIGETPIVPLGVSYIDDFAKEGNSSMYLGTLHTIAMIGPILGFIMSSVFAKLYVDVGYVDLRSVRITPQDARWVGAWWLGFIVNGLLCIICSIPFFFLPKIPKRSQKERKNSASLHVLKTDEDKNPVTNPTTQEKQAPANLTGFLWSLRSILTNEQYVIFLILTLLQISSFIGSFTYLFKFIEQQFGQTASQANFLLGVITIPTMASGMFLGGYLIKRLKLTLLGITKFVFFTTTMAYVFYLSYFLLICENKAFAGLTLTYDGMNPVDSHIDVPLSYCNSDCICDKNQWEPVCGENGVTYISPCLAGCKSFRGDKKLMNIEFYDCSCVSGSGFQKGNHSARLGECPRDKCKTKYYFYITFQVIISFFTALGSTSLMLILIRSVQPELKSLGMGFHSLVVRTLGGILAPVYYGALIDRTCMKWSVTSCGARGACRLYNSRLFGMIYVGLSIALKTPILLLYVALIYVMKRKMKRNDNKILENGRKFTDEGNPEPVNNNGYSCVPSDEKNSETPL

P388D1 = settings: vincristine 1 μM, 30 min, nilotinib 10 μM
Excerpt: (A) Gene expression of the OATP1B2 gene in L1210 and P388D1 murine leukemia cells
normalized to total protein levels. All data presented represent the mean (bars) ± SEM (error bars).

hOATP1B3 = target: T3, hOATP1B3 (Homo sapiens, UniProt Q9NPD5); test: Inhibition of EβG uptake in HEK293 cells overexpressing hOATP1B3; settings: HEK293 hOATP1B3; inhibitor 10 μM, 15-min pre-incubation
T3 sequence (Q9NPD5 1-702): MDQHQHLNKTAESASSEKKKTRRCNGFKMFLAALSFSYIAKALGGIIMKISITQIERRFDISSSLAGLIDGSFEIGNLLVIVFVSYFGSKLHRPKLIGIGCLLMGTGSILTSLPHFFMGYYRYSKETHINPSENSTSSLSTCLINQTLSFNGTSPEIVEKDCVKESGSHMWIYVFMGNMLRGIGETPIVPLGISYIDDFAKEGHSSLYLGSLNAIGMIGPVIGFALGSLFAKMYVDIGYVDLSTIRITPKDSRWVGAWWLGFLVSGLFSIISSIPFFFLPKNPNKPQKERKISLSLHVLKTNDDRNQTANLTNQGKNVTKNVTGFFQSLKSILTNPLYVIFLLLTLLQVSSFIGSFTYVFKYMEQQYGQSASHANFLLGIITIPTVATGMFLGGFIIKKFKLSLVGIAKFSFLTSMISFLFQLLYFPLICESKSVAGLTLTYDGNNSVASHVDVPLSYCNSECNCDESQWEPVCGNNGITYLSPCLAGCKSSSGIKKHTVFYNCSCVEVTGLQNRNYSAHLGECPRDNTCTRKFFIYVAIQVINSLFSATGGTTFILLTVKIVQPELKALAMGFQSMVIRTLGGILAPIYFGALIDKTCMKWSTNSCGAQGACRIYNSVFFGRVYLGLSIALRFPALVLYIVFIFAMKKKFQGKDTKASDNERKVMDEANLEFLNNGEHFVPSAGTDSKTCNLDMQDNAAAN

OATP1B-type transporters = settings: read-out: IC50, inhibition of OATP1B-mediated transport; cited from earlier work
OATP1B3 protein variants = test: Vincristine transport by OATP1B3 single-nucleotide variants; assay type: in vitro ADME, human; settings: single-nucleotide substitutions
Protocol: Figure S2. […] (A) Single […]
nucleotide polymorphisms (SNPs) activity percentage of OATP1B3 over-expressed cell after treated […]
Statistical analysis was performed using one-way ANOVA with Dunnett’s […]
(B) Schematic overview of […]
week (cumulative dose of 4 mg/kg). Von-Frey tests were performed on day -1, 9, 16, 18, and 23. Thermal hyperalgesia (Hargreaves test) and nerve conduction studies of the sciatic and caudal nerve were measured on days -1 and 23. Tissue samples for morphologic evaluation were obtained on day 24. (C) […]
and OATP1B2- deficient groups.
Normalized mechanical allodynia (E) was expressed as a percentage change relative to baseline values (n = 6-8 per group). Statistical

hMATE1 = hMATE1 (Homo sapiens, UniProt Q96FL8); test: Substrate uptake in HEK293 cells overexpressing hMATE1; settings: HEK293 human MATE1
Chain of hMATE1 (Q96FL8 whole entry): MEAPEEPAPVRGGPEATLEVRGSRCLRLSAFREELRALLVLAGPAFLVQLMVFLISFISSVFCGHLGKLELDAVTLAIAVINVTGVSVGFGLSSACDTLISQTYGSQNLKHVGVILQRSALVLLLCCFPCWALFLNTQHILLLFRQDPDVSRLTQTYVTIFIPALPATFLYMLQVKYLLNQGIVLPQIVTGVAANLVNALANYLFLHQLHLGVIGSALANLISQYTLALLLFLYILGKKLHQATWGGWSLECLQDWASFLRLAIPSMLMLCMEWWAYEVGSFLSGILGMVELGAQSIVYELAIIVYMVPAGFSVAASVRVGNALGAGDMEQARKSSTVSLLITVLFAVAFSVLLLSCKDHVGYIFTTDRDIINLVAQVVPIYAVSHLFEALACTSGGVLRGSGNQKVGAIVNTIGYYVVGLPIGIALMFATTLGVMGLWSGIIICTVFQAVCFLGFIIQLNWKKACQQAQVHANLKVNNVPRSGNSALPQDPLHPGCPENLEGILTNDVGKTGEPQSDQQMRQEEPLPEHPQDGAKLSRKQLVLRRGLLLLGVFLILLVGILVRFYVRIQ
Protocol: on OATP1B1, OATP1B3, or OATP1B2 function was evaluated using EβG (Axxora LLC) as the
transfected with transporters of interest, including hOAT1, hOAT3, hOAT4, hOATP1A2, hOATP3A1, hOATP4A1, hOATP5A1, hOATP1C1, hOATP1B1, hOATP1B3, hOATP2B1, hOCT1, hOCT2, hOCTN1, hOCTN2, hASBT, hNTCP, hNPT1, hMATE1, hOSTα/β, hPEPT1, hPEPT2, rOatp1a1, rOatp1a4, rOatp1a5, rOatp1b2, rNtcp, rAsbt, rOat1, and rOct1. Cells were transfected with expression plasmid or vector control lacking any insert using Lipofectin reagent (Invitrogen). Sixteen hours thereafter, cells were washed with transport media (OPTIMEM, Invitrogen) and treated with radiolabeled drug. At various time intervals, cells were washed three times with ice-cold PBS and then lysed with 1% sodium dodecyl sulfate. The cellular radioactivity was quantified by liquid scintillation counting as described above. Similar analyses were performed in HEK293 cells transfected with hOATP1A2, hOATP1C1, mMATE1, and hMATE1, with cells seeded in poly lysine pre-coated 12-well plates. For hOATP1A2 and hOATP1C1, transient transfections were performed with either an empty vector, OATP1A2, or OATP1C1 using Lipofectamine 2000 according to the manufacturers protocol (Invitrogen).

patients with cancer = settings: cited from earlier work

T1 sequence (P25911 whole entry): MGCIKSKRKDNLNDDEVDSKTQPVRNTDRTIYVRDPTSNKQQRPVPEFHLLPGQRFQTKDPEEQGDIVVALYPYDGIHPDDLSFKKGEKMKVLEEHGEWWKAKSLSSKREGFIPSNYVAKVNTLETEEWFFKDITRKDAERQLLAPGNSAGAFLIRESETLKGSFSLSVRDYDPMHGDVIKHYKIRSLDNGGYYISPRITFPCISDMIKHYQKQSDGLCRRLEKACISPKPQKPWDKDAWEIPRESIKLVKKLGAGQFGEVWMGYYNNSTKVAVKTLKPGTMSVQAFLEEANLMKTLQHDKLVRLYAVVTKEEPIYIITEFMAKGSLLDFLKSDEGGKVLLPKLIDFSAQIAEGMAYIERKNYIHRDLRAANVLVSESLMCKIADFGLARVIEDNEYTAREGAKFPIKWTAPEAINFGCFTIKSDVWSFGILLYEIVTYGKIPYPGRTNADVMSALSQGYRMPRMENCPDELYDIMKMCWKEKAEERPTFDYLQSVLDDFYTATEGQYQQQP

Row | Compound | DRG Phosho-LYN/Total LYN (% of Untreated) (LYN kinase; DRG of mice) | Phosphorylated-LYN in DRG neurons (LYN kinase; nilotinib 100 mg/kg p.o., wild-type mice) | Nilotinib uptake (% of control) (mOATP1B2) | Influence on uptake of vincristine (P388D1) | EβG uptake (% of vehicle) (hOATP1B3) | IC50 (OATP1B-type transporters) [nM] | Transport by OATP1B3 protein variants (OATP1B3 protein variants) | Contribution of transporter to cellular uptake of vincristine (hMATE1) | Incidence of sensory peripheral neurotoxicity (patients with cancer)
1 | Cc1cn(-c2cc(NC(=O)c3ccc(C)c(Nc4nccc(-c5cccnc5)n4)c3)cc(C(F)(F)F)c2)cn1 [Nilotinib, nilotinib] | 47.9691 % of Untreated and 52.4315 % of Untreated and 37.2669 % of Untreated | significant inhibition of phosphorylated-LYN in DRG neurons | 68.9093 % of control and 50.5858 % of control and 83.427 % of control | did not influence the uptake of vincristine | 3.038 % of vehicle and 2.924 % of vehicle and 2.718 % of vehicle | ~1000 | – | – | –
2 | CC[C@]1(O)C[C@H]2CN(CCc3c([nH]c4ccccc34)[C@@](C(=O)OC)(c3cc4c(cc3OC)N(C=O)[C@H]3[C@@](O)(C(=O)OC)[C@H](OC(C)=O)[C@]5(CC)C=CCN6CC[C@]43[C@@H]65)C2)C1 [Vincristine, vincristine] | – | – | – | – | – | – | impaired ability to transport vincristine | do not appreciably contribute to the cellular uptake of vincristine | up to 100%
